SMILES strings stand for the structures.

By Ki is commonly meant the equilibrium dissociation constant of an inhibitor or competing ligand from its target.

The target in one assay is CDK6/Cyclin D1 (Homo sapiens (Human), UniProt Q00534). Nature of the assay: biochemical. The conditions noted are these: CDK6_Ki (nM), non-phosphorylated CDK6/Cyclin D1, 2 mM ATP, Morrison fit.
Another assay deals with CDK2/Cyclin E1 (Homo sapiens (Human), UniProt P24941). The assay can be described thus: biochemical. The conditions noted are these: CDK2_Ki (nM), phosphorylated CDK2/Cyclin E1, 150 μM ATP, Morrison tight-binding fit.

CDK6/Cyclin D1, sequence (Q00534 whole entry): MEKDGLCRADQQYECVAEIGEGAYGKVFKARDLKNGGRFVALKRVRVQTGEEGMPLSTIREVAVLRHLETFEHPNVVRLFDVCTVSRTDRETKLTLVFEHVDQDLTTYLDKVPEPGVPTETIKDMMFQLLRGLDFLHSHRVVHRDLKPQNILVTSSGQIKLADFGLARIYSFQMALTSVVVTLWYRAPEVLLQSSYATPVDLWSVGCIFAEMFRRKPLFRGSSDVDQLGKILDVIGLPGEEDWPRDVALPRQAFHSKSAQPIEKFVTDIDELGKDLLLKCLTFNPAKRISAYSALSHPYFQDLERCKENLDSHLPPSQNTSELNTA
CDK6/Cyclin D1, sequence (P24385 whole entry partner): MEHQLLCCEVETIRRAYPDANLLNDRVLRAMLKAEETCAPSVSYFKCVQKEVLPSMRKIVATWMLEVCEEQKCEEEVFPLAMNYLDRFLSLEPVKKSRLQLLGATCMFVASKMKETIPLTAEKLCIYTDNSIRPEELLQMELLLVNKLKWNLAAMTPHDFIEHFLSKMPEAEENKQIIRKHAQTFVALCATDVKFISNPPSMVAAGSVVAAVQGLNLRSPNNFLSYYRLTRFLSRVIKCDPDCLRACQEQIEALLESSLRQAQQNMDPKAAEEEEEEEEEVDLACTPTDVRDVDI
Method for CDK2/Cyclin E1: The assay was initiated with the addition of ATP, following a fifteen minutes pre-incubation of enzyme and inhibitor at room temperature in the reaction mixture. The reaction was stopped after 45 minutes at room temperature by the addition of 50 μL of 80 mM EDTA, pH 7.5.

As to `Cc1cc2cnc(NC3CCN(S(C)(=O)=O)CC3)nc2n([C@@H]2C[C@H](O)C[C@@H]2C)c1=O` (single isomer, unassigned) [Example 199, (−)-8-[(1R*,2S*,4R*)-4-hydroxy-2-methylcyclopentyl]-6-methyl-2-{[1-(methylsulfonyl)piperidin-4-yl]amino}pyrido[2,3-d]pyrimidin-7(8H)-one], the values for the Ki on CDK6/Cyclin D1 and at CDK2/Cyclin E1 were 1.09 nM and 2.92 nM, respectively.
Consider `Cc1cc2cnc(NC3CCN(S(C)(=O)=O)CC3)nc2n([C@H]2C[C@@H](O)C[C@H]2C)c1=O` (single isomer, unassigned) [Example 200, (+)-8-[(1R*,2S*,4R*)-4-hydroxy-2-methylcyclopentyl]-6-methyl-2-{[1-(methylsulfonyl)piperidin-4-yl]amino}pyrido[2,3-d]pyrimidin-7(8H)-one], for which the Ki at CDK6/Cyclin D1 is 4.72 nM; at CDK2/Cyclin E1, 9.51 nM.
On the same counts, the results for `C[C@@H]1[C@H](O)CC[C@H]1n1c(=O)ccc2cnc(NC3CCN(S(C)(=O)=O)CC3)nc21` (single isomer, unassigned) [Example 201, (−)-8-[(1R*,2S*,3R*)-3-hydroxy-2-methylcyclopentyl]-2-{[1-(methylsulfonyl)piperidin-4-yl]amino}pyrido[2,3-d]pyrimidin-7(8H)-one] are 0.85 nM and 0.12 nM.
`C[C@H]1[C@@H](O)CC[C@@H]1n1c(=O)ccc2cnc(NC3CCN(S(C)(=O)=O)CC3)nc21` (single isomer, unassigned) [Example 202, (+)-8-[(1R*,2S*,3R*)-3-hydroxy-2-methylcyclopentyl]-2-{[1-(methylsulfonyl)piperidin-4-yl]amino}pyrido[2,3-d]pyrimidin-7(8H)-one]: the figures for the Ki on CDK6/Cyclin D1 and at CDK2/Cyclin E1 were 2.44 nM and 0.8 nM, respectively.
On the same counts, the results for `C[C@@H]1[C@H](O)CC[C@H]1n1c(=O)c(Cl)cc2cnc(NC3CCN(S(C)(=O)=O)CC3)nc21` (single isomer, unassigned) [Example 203, (−)-6-chloro-8-[(1R*,2S*,3R*)-3-hydroxy-2-methylcyclopentyl]-2-{[1-(methylsulfonyl)piperidin-4-yl]amino}pyrido[2,3-d]pyrimidin-7(8H)-one] are 1.53 nM and 0.51 nM.
Consider `C[C@@H]1[C@H](O)CC[C@H]1n1c(=O)c(C(F)F)cc2cnc(NC3CCN(S(C)(=O)=O)CC3)nc21` (single isomer, unassigned) [Example 204, (−)-6-(difluoromethyl)-8-[(1R*,2S*,3R*)-3-hydroxy-2-methylcyclopentyl]-2-{[1-(methylsulfonyl)piperidin-4-yl]amino}pyrido[2,3-d]pyrimidin-7(8H)-one], for which the inhibitory constant (Ki) on CDK6/Cyclin D1 was found to be 0.18 nM; on CDK2/Cyclin E1, 0.51 nM.
On the same counts, the results for `C[C@H]1[C@@H](O)CC[C@@H]1n1c(=O)c(C(F)F)cc2cnc(NC3CCN(S(C)(=O)=O)CC3)nc21` (single isomer, unassigned) [Example 205, (+)-6-(difluoromethyl)-8-[(1 R*,2S*,3R*)-3-hydroxy-2-methylcyclopentyl]-2-{[1-(methylsulfonyl)piperidin-4-yl]amino}pyrido[2,3-d]pyrimidin-7(8H)-one] are 1.27 nM and 5.22 nM.
On the same counts, the results for `C[C@@H]1[C@@H](O)CC[C@@H]1n1c(=O)ccc2cnc(NC3CCN(S(C)(=O)=O)CC3)nc21` (single isomer, unassigned) [Example 209, (+)-8-[(1R*,2R*,3R*)-3-hydroxy-2-methylcyclopentyl]-2-{[1-(methylsulfonyl)piperidin-4-yl]amino}pyrido[2,3-d]pyrimidin-7(8H)-one] are 0.75 nM and 0.5 nM.
On the same counts, the results for `C[C@H]1[C@H](O)CC[C@H]1n1c(=O)ccc2cnc(NC3CCN(S(C)(=O)=O)CC3)nc21` (single isomer, unassigned) [Example 210, (−)-8-[(1R*,2R*,3R*)-3-hydroxy-2-methylcyclopentyl]-2-{[1-(methylsulfonyl)piperidin-4-yl]amino}pyrido[2,3-d]pyrimidin-7(8H)-one] are 3.15 nM and 5.36 nM.
`CS(=O)(=O)N1CCC(Nc2ncc3cc(CC(N)=O)c(=O)n([C@@H]4CCC[C@@H](O)C4)c3n2)CC1` (single isomer, unassigned) [Example 213, (+)-2-(8-[(1R*,3R*)-3-hydroxycyclohexyl]-2-{[1-(methylsulfonyl)piperidin-4-yl]amino}-7-oxo-7,8-dihydropyrido[2,3-d]pyrimidin-6-yl)acetamide]: the results for the Ki on CDK6/Cyclin D1 and on CDK2/Cyclin E1 were 9.15 nM and 1.73 nM, respectively.
For `CS(=O)(=O)N1CCC(Nc2ncc3cc(CC(N)=O)c(=O)n([C@H]4CCC[C@H](O)C4)c3n2)CC1` (single isomer, unassigned) [Example 214, (−)-2-(8-[(1R*,2R*)-3-hydroxycyclohexyl]-2-{[1-(methylsulfonyl)piperidin-4-yl]amino}-7-oxo-7,8-dihydropyrido[2,3-d]pyrimidin-6-yl)acetamide], the Ki at CDK6/Cyclin D1 was determined as 83.3 nM; on CDK2/Cyclin E1, 27.8 nM.
Turning to `CS(=O)(=O)N1CCC(Nc2ncc3ccc(=O)n([C@H]4C[C@H](O)CC[C@@H]4F)c3n2)CC1` (single isomer, unassigned) [Example 217, (+)-8-[(1S*,2S*,5R*)-2-fluoro-5-hydroxycyclohexyl]-2-{[1-(methylsulfonyl)piperidin-4-yl]amino}pyrido[2,3-d]pyrimidin-7(8H)-one], the Ki on CDK6/Cyclin D1 was found to be 2 nM; at CDK2/Cyclin E1, 0.55 nM.
In the case of `CS(=O)(=O)N1CCC(Nc2ncc3ccc(=O)n([C@@H]4C[C@@H](O)CC[C@H]4F)c3n2)CC1` (single isomer, unassigned) [Example 218, (−)-8-[(1S*,2S*,5R*)-2-fluoro-5-hydroxycyclohexyl]-2-{[1-(methylsulfonyl)piperidin-4-yl]amino}pyrido[2,3-d]pyrimidin-7(8H)-one], the Ki at CDK6/Cyclin D1 is 14.3 nM; at CDK2/Cyclin E1 it was 6.28 nM.
On the same counts, the results for `CNS(=O)(=O)N1CCC(Nc2ncc3ccc(=O)n([C@H]4C[C@H](O)CC[C@@H]4F)c3n2)CC1` (single isomer, unassigned) [Example 219, (+)-4-({8-[(1S*,2S*,5R*)-2-fluoro-5-hydroxycyclohexyl]-7-oxo-7,8-dihydropyrido[2,3-d]pyrimidin-2-yl}amino)-N-methylpiperidine-1-sulfonamide] are 3.9 nM and 0.78 nM.
On the same counts, the results for `CNS(=O)(=O)N1CCC(Nc2ncc3ccc(=O)n([C@@H]4C[C@@H](O)CC[C@H]4F)c3n2)CC1` (single isomer, unassigned) [Example 220, (−)-4-({8-[(1S*,2S*,5R*)-2-fluoro-5-hydroxycyclohexyl]-7-oxo-7,8-dihydropyrido[2,3-d]pyrimidin-2-yl}amino)-N-methylpiperidine-1-sulfonamide] are 18.3 nM and 7.46 nM.
On the same counts, the results for `C[C@@H]1[C@H](O)CCC[C@H]1n1c(=O)ccc2cnc(NC3CCN(S(C)(=O)=O)CC3)nc21` (single isomer, unassigned) [Example 221, (−)-8-[(1S*,2R*,3S*)-3-hydroxy-2-methylcyclohexyl]-2-{[1-(methylsulfonyl)piperidin-4-yl]amino}pyrido[2,3-d]pyrimidin-7(8H)-one] are 0.36 nM and 0.13 nM.
For the compound `CC1(C)CC(Nc2ncc3cc(CCO)c(=O)n(C4CCCC4)c3n2)CCN1S(C)(=O)=O` (single isomer, unassigned; (+)) [Example 162, (+)-8-cyclopentyl-2-{[2,2-dimethyl-1-(methylsulfonyl)piperidin-4-yl]amino}-6-(2-hydroxyethyl)pyrido[2,3-d]pyrimidin-7(8H)-one], the Ki on CDK6/Cyclin D1 worked out at 12.3 nM; at CDK2/Cyclin E1, 3.92 nM.
On the same counts, the results for `Cc1cc2cnc(NC3CCN(S(=O)(=O)C4CCS(=O)(=O)C4)CC3)nc2n([C@@H]2CCC[C@@]2(C)O)c1=O` (single isomer, unassigned; isomer a) [Example 106, (−)-2-[(1-{[(3ξ)-1,1-dioxidotetrahydrothiophen-3-yl]sulfonyl}piperidin-4-yl)amino]-8-[(1R*,2R*)-2-hydroxy-2-methylcyclopentyl]-6-methylpyrido[2,3-d]pyrimidin-7(8H)-one-Isomer A] are 0.11 nM and 0.16 nM.
On the same counts, the results for `Cc1cc2cnc(NC3CCN(S(C)(=O)=O)CC3)nc2n(C2CCCCC(O)C2)c1=O` (single isomer, unassigned; isomer a) [Example 223, 8-(3-hydroxycycloheptyl)-6-methyl-2-{[1-(methylsulfonyl)piperidin-4-yl]amino}pyrido[2,3-d]pyrimidin-7(8H)-one-Isomer A] are 21 nM and 57.1 nM.
On the same counts, the results for `Cc1cc2cnc(NC3CCN(S(=O)(=O)C4CCS(=O)(=O)C4)CC3)nc2n([C@H]2CCC[C@]2(C)O)c1=O` (single isomer, unassigned; isomer b) [Example 107, (+)-2-[(1-{[(3ξ)-1,1-dioxidotetrahydrothiophen-3-yl]sulfonyl}piperidin-4-yl)amino]-8-[(1R*,2R*)-2-hydroxy-2-methylcyclopentyl]-6-methylpyrido[2,3-d]pyrimidin-7(8H)-one-Isomer B] are 184 nM and 9.91 nM.
As for `CS(=O)(=O)N1CC[C@H](Nc2ncc3cc(N)c(=O)n(C4CCCC4)c3n2)[C@H](F)C1` (single isomer, unassigned; isomer b) [Example 150, 6-amino-8-cyclopentyl-2-{[(3R*,4S*)-3-fluoro-1-(methylsulfonyl)piperidin-4-yl]amino}pyrido[2,3-d]pyrimidin-7(8H)-one-Isomer B], the Ki on CDK6/Cyclin D1 is 1.32 nM; on CDK2/Cyclin E1, 2.63 nM.
With `Cc1cc2cnc(NC3CCN(S(C)(=O)=O)CC3)nc2n(C2CCCCC(O)C2)c1=O` (single isomer, unassigned; isomer b) [Example 224, 8-(3-hydroxycycloheptyl)-6-methyl-2-{[1-(methylsulfonyl)piperidin-4-yl]amino}pyrido[2,3-d]pyrimidin-7(8H)-one-Isomer B], the Ki on CDK6/Cyclin D1 was 12 nM; on CDK2/Cyclin E1, 24.9 nM.
